Data on five molecules can be found in US20240245805A1 (Orna Therapeutics, Inc., priority 2020, published 2024).

For data set [1] the following is noted: Table 1, lipids of Formula I; cited from earlier work.
Data set [2] deals with 1C1C7 cells. The data set can be described thus: 5′ UTR variants, GLuc in 1C1C7 cells. In kind it is cell-based. To be noted: CK IRES with 5′ UTR variants. The source says: This example describes modifications of circular RNAs by inserting 5′ UTR variants. […] 1C1C7 cells were transfected with the circular RNAs.
Data set [3] has as its system 1C1C7 cells. The data set can be described thus: GLuc luminescence and functional stability by IRES, 1C1C7 cells.

As for `CCCCCCCCC(CCCCCC)CCCOC(=O)CCCCCN(CCCCCC(=O)OCC(CCCCCC)CCCCCCCC)CCN(C)CC` (centres unmarked) [Lipid I-33], the pKa in data set [1] is 6.27.

On to `CCCCCCCCCCCCC(CCCCCCCCCC)C(=O)OCCCCCCN(CCCCCCOC(=O)C(CCCCCCCCCC)CCCCCCCCCCCC)CCN(C)C` (centres unmarked) [Lipid I-39], for which the pKa in data set [1] is 6.82.

Consider “UTR2: 5′ UTR variant: canonical Kozak sequence with "a 36-nucleotide unstructured/low GC spacer sequence" added (UTR2) (DNA AATAAGAGAGAAAAGAAGAGTAAGAAGAAATATAAGAGCCACC; 5' UTR segment within a circular RNA construct, further chemistry not given here)”, for which, in the data set on 1C1C7 cells [2], the translation entry is reported as “more effective”.

For the molecule “UTR3: 5′ UTR variant: "a higher-GC/structured spacer with a kozak sequence" (UTR3) (DNA CGAACTAGTATTCTTCTGGTCCCCACAGACTCAGAGAGAACCCGCCACC; 5' UTR segment within a circular RNA construct, further chemistry not given here)”, in the data set with 1C1C7 cells [2], the translation result is reported as “did not show the same benefit”.

B1: Salivirus A SZ-1 (nucleic acid)
DNA: TCTGTCCTCACCCCATCTTCCCTTCTTTCCTGCACCGTTACGCTTACTCGCATGTGCATTGAGTGGTGCACGTGCTTGAACAAACAGCTACACTCACATGGGGGCGGGTTTTCCCGCCCTGCGGCCTCTCGCGAGGCCCACCCCTCCCCTTCCTCCCATAACTACAGTGCTTTGGTAGGTAAGCATCCTGATCCCCCGCGGAAGCTGCTCACGTGGCAACTGTGGGGACCCAGACAGGTTATCAAAGGCACCCGGTCTTTCCGCCTTCAGGAGTATCCCTGCTAGTGAATTCTAGTAGGGCTCTGCTTGGTGCCAACCTCCCCCAAATGCGCGCTGCGGGAGTGCTCTTCCCCAACTCACCCTAGTATCCTCTCATGTGTGTGCTTGGTCAGCATATCTGAGACGATGTTCCGCTGTCCCAGACCAGTCCAGTAATGGACGGGCCAGTGTGCGTAGTCGTCTTCCGGCTTGTCCGGCGCATGTTTGGTGAACCGGTGGGGTAAGGTTGGTGTGCCCAACGCCCGTACTTTGGTGATACCTCAAGACCACCCAGGAATGCCAGGGAGGTACCCCGCTTCACAGCGGGATCTGACCCTGGGCTAATTGTCTACGGTGGTTCTTCTTGCTTCCACTTCTTTCTACTGTTCATG
modifications: source: /note="Description of Unknown: Salivirus A sequence"
For the molecule B1, the “luminescence at 24 hours” value with 1C1C7 cells [3] was “produced high luminescence”.

One may read the pKa as the negative logarithm of the acid dissociation constant.
